Test results from the NIST ThermoML archive (doi:10.1021/je900660x).
Numbers after ± are expanded uncertainties.

Columns and labels:
[1] = for mass density / viscosity / thermal conductivity: 101.33 kPa, Liquid; for mass density: Vibrating tube method; for thermal conductivity: Hot wire method
[2] = molar heat capacity at constant pressure; conditions: 101.33 kPa, Liquid, Large sample (1 g) DSC

CCCC[P+](CCCC)(CCCC)CCCC.C[C@@H](O)[C@H](N)C(=O)[O-] [tetrabutylphosphonium L-threoninate]
Conditions	Glass transition temperature, [1] [°C]	mass density, [1] [kg/m3]	molar heat capacity at constant pressure, [2] [J/K/mol]	thermal conductivity, [1] [W/m/K]	viscosity, [1] [mPa·s]
293.15 K	–	983 ± 5.2	952.2 ± 96	–	–
298.15 K	–	979.9 ± 5.2	961.3 ± 97	0.156 ± 0.01	739 ± 140
303.15 K	–	976.9 ± 5.2	970.7 ± 98	0.155 ± 0.01	519.8 ± 83
313.15 K	–	970.7 ± 5.1	991.5 ± 100	0.154 ± 0.01	260.1 ± 30
323.15 K	–	964.6 ± 5	1012.6 ± 100	0.153 ± 0.01	143.2 ± 11
333.15 K	–	958.5 ± 5	1033.4 ± 100	0.152 ± 0.01	88.5 ± 4.1
343.15 K	–	952.5 ± 4.9	1055.7 ± 110	0.152 ± 0.01	53.9 ± 1.4
353.15 K	–	946.6 ± 4.9	1076.4 ± 110	0.151 ± 0.01	36.2 ± 1.1
363.15 K	–	940.7 ± 4.8	1097.2 ± 110	–	25.1 ± 0.8
DTA	-60.72 ± 4	–	–	–	–

CC(C)[C@H](N)C(=O)[O-].CCCC[P+](CCCC)(CCCC)CCCC [tetrabutylphosphonium L-valinate]
Conditions	Glass transition temperature, [1] [°C]	mass density, [1] [kg/m3]	molar heat capacity at constant pressure, [2] [J/K/mol]	thermal conductivity, [1] [W/m/K]	viscosity, [1] [mPa·s]
293.15 K	–	–	743.7 ± 75	–	–
298.15 K	–	–	747.4 ± 76	–	–
303.15 K	–	–	751.6 ± 76	–	–
313.15 K	–	932.1 ± 4.7	761.3 ± 77	0.157 ± 0.01	216.9 ± 22
323.15 K	–	926 ± 4.7	771.5 ± 78	0.156 ± 0.01	120 ± 7.8
333.15 K	–	919.9 ± 4.6	781.2 ± 79	0.155 ± 0.01	70.8 ± 2.5
343.15 K	–	913.9 ± 4.5	791.4 ± 80	0.154 ± 0.01	44.8 ± 1.3
353.15 K	–	908 ± 4.5	801.1 ± 81	0.153 ± 0.01	29.6 ± 0.9
363.15 K	–	902.1 ± 4.4	810.9 ± 82	–	20.3 ± 0.6
DTA	-65.56 ± 4	–	–	–	–

Conditions	Normal melting temperature [°C]
[1], Crystal, DTA	25.77 ± 0.5
